Experimental data reported in US20220162610A1, “NOVEL RNA TRANSCRIPT” (PTC Therapeutics, Inc., priority 2020, published 2022).

Columns and labels:
[1] = system: HTT pre-mRNA; assay: Ampliseq/RNAseq analysis of intron 49 pseudoexon inclusion and HTT expression in different cell types; type: cell-based, human; details: for inclusion of intron 49 pseudoexon: HD fibroblasts, SH-SY5Y, TK6, MRC-5 cells
[2] = biological target: T1, MDR1 (Homo sapiens, UniProt P08183); assay: MDCK-MDR1 efflux assay; type: in vitro ADME; details: 10 μM, MDCK-MDR1 and MDCK-WT monolayers, 1 hour
T1 construct: host or cells: MDCK (Madin-Darby Canine Kidney) cells expressing MDR1
T1 sequence (P08183 whole entry): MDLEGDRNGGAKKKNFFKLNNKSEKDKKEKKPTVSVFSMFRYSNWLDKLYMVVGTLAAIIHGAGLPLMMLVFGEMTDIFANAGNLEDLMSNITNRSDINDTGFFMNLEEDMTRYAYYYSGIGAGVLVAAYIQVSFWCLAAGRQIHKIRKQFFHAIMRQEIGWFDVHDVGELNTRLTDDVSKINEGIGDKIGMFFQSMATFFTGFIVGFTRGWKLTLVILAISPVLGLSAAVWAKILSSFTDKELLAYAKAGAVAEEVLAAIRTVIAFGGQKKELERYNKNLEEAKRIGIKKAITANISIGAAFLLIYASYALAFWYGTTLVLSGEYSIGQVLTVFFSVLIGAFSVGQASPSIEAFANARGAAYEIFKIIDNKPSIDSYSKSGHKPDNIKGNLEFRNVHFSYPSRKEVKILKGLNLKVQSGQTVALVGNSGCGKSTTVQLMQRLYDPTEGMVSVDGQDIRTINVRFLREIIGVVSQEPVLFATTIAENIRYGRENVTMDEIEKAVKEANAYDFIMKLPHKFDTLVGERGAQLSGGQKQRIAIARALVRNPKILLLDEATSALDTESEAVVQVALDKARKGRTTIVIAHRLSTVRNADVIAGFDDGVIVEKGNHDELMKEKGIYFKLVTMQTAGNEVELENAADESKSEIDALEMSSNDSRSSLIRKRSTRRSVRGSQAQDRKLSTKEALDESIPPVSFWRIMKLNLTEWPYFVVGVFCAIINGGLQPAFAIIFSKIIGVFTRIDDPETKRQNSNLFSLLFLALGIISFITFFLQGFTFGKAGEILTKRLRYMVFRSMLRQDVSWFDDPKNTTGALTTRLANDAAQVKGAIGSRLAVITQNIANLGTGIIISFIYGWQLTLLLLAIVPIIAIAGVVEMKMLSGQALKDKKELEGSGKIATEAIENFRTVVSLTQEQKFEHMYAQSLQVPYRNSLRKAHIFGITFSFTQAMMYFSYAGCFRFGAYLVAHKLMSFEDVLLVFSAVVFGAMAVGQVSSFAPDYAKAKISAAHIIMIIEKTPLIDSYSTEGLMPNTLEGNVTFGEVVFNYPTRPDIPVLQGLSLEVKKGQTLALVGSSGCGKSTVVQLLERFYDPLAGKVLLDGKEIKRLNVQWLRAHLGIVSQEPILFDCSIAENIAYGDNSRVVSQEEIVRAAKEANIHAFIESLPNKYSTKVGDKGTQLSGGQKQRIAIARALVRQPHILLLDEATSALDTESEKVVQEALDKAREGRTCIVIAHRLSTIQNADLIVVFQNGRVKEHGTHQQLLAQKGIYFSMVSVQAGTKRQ
Experimental: The MDR1 efflux assay was conducted at Absorption System LLC (Exton, Pa.). Briefly, MDCK-MDR1 and MDCK-WT cell monolayers were grown to confluence on collagen-coated, microporous membranes in 12-well assay plates (Thermofisher). Compound solutions (10 μM) in permeability assay buffer (Hanks' balanced salt solution (HBSS), 10 mM HEPES, 15 mM glucose; pH of 7.4) were placed in the donor chamber. The receiver chamber was filled with assay buffer plus 1% BSA. Cell monolayers were dosed on the apical side (A-to-B) or basolateral side (B-to-A) and incubated at 37° C. (5% CO2, 100% relative humidity). Sampling from the donor chambers was performed at 0 and 1 hour; and from the receiver chambers at 1 hour. Each determination was performed in duplicate. The flux of lucifer yellow was also measured post-experimentally for each monolayer to ensure no damage was inflicted to the cell monolayers during the flux period. All samples were assayed by LC-MS/MS using electrospray ionisation. The apparent permeability (Papp) and percent recovery was determined using the following equation: […]
dCr/dt represents the slope of the cumulative receiver concentration versus time in μM/s; Vr is the volume of the receiver compartment (cm3); Vd is the volume of the donor compartment in (cm3); A is the area of the insert (1.13 cm2 for 12-well); C0 is the average measured concentration of the donor chamber at time zero in μM; Net Efflux ratio (ER) is defined as […].

[3] = Unbound brain partition coefficient (Kp,uu) from mouse PK studies; type: in vivo; details: FVB (WT littermates of the BACHD colony), brain and plasma (unbound), oral, 10 mg/kg, average over animals of multiple mouse PK studies
Experimental: Oral pharmacokinetics (PK) of compounds was evaluated in WT littermates from the BACHD colony (FVB background). Mice were treated with test compounds (10 mg/kg) by oral gavage in 0.5% hydroxypropylmethyl cellulose (HPMC) with 0.1% Tween 80. Blood was collected by terminal cardiac puncture at specified time points (3 mice per time point) and centrifuged to generate plasma. Brain tissue was collected at the time of blood collection and homogenized in water. Protein was precipitated from plasma and brain homogenates with acetonitrile, methanol mixture (5:1, v:v) containing an internal standard that is a close analog of the test compounds. The mixture was filtered through an EMD Millipore MultiScreen™ Solvinert Filter Plate (MSRLN04, Millipore, Burlington, Mass.). Calibration standards were prepared in the same matrix and processed with the testing samples. Filtrates were analysed using Acquity ultra performance liquid chromatography (UPLC) system (Waters Corporation) tandem with Xevo TQ-s Spectrometer (Waters Corporation). Samples were injected on to a Waters UPLC Acquity BEH C18 Column (2.1*50 mm, 1.7 μm) maintained at 50° C. The injection volume was 3 μL and the mobile phase flow rate was 0.45 mL/min. The mobile phase consisted of 2 solvents: A) 0.1% formic acid in water and B) 0.1% formic acid in acetonitrile. The initial mobile phase started with 5% solvent B for 0.4 min, which was changed to […] over 0.8 min with linear gradients and then maintained at 95% solvent B for another 0.4 min. The drug concentrations were acquired and processed with MassLynx 4.1 software. PK parameters were estimated using the non-compartment method within Phoenix® WinNonlin® Build 8.1 (Certara USA, Inc., Princeton, N.J.).
The unbound brain partition coefficient (Kp,uu) is defined as the ratio between unbound brain free drug concentration and unbound plasma concentration. It was calculated using the following equation:
Kp,uu=Cbrain×fu,b/(Cplasma*fu,p)
Cbrain and Cplasma represent the compound concentrations in brain and plasma, respectively. fu,b and fu,p are the unbound fraction of each testing article in brain and plasma, respectively. Both fu,b and fu,p were determined in vitro using Pierce Rapid Equilibrium Dialysis (RED) device at Absorption System LLC (Exton, Pa.). Kp,uu was calculated individually for each animal from multiple mouse PK studies and the average values are reported here.

[4] = system: human HTT protein; assay: Pharmacodynamic study in BACHD mice, HTT protein in tissues; type: in vivo
Experimental: Test mice were euthanised and brain, muscle (quadriceps), and blood samples were harvested 2 hours after the last dose on Day 20. Prior to analysis, crude total protein from brain and muscle tissue samples was prepared by sample lysis in MSD® assay buffer 1 (MSD®) with Complete™ Protease Inhibitor Cocktail added (Roche Diagnostics). Tissues were then homogenised using TissueLyser II (Qiagen) plus a 5 mm stainless steel bead. The lysate was clarified by centrifugation at 16,000×g for 20 minutes at 4° C. and the total protein concentration quantified with the Pierce™ BCA Protein Assay Kit (Thermo Scientific) according to the manufacturer's instructions. Whole blood was collected by cardiac puncture into EDTA collection tubes. An aliquot (100-200 μL) was added to 1.5 mL of eBioscience™ 1× Red Blood Cell Lysis Buffer (Thermo Fisher) and mixed well for 5 minutes before collecting the white blood cells (WBC) by centrifugation at 400×g. The supernatant was discarded, and the pellet of WBCs was frozen in liquid nitrogen and stored at −70° C. Brain and muscle sample lysates were analysed for hHTT and KRAS protein expression using the ECL protein assay (described previously); using the same method WBC samples were also analysed for hHTT expression but not KRAS.
Each tissue sample was tested in duplicate using the ECL protein assay and the average hHTT and KRAS readouts were calculated. The ratio of the mean hHTT signal to the mean KRAS signal (×1000) was determined for each test animal. The hHTT/KRAS ratio grand mean for the vehicle group of five test animals was calculated and the fold change relative to the vehicle grand mean was determined for each test animal in each group. Percent hHTT (% hHTT) lowering normalised to KRAS was determined for each test animal by subtracting the fold change from one and multiplying the difference by 100. Each experiment was performed twice yielding ten % hHTT lowering values for each treatment group. For each treatment group, the mean % hHTT lowering plus the standard error of the mean (SEM) was plotted as a bar graph. The % hHTT lowering in white blood cell samples was determined without KRAS using the grand hHTT vehicle mean instead of the grand hHTT/KRAS ratio vehicle mean.
BACHD: Pharmacodynamic (PD) evaluations were performed in BACHD mice aged 6-10 weeks. Compound or vehicle (HPMC/0.1% Tween 80) was administered to BACHD mice (5 female mice per group) once daily for 21 doses (QD×21) by oral gavage; dosing volumes were 10 mL/kg. Each animal was regularly observed for mortality or signs of pain, distress, or overt toxicity and findings were recorded. Body weights were recorded at the start and at least once a week during the course of the study. As described previously, tissue samples were obtained and prepared for ECL protein assay analysis from each animal as described previously.

Row | SMILES | inclusion of intron 49 pseudoexon [1] | NET MDR1 ER [2] | Kp uu [3] | HTT gene expression quantified using RNAseq (FPKM) ([1]; 100 nM, SHSY5Y cells (HTT-C2), TK6 cells (HTT-C3)) | time for protein expression to return to control levels after treatment cessation ([4]; 10 mg/kg, brain) [days] | time at which maximal reductions in HTT levels were achieved ([4]; 10 mg/kg, brain, time course 4-63 days) [days] | lowering of HTT protein throughout the whole brain ([4]; 10 mg/kg, incl. striatum and cortex) [%] | HTT reduction in blood cells, muscle, heart, liver and kidney ([4]; at doses required to achieve 50% HTT lowering in the brain) [%] | HTT levels within brain tissue ([4]; daily oral administration, 3 or 10 mg/kg) | HTT protein within peripheral tissues ([4]; oral administration) | HTT protein within the brain and peripheral tissues ([4]; BACHD mice)
1 | CC1(C)CC(Oc2ccc(-c3ccc(-c4ccnc(O)c4)cc3O)nn2)CC(C)(C)N1 [HTT-C1] | induced the inclusion of an Intron 49 pseudoexon | >62.7 | 0.084 |  |  |  |  |  |  |  | 
2 | CC1(C)CC(Oc2ccc(-c3ccc(-c4cn[nH]c4)cc3O)nn2)CC(C)(C)N1 [HTT-C2] | induced the inclusion of an Intron 49 pseudoexon |  | 0.179 | reduced HTT gene expression | ≤ 10 | ≤ 21 | > 50 | > 90 | dose-dependent reduction of HTT levels within brain tissue | dose dependently lowered HTT protein within peripheral tissues | 
3 | CCN1CCC(c2cc(C)c3nc(-c4ccc5nn(C)cc5c4)cc(=O)n3c2)CC1 [HTT-D1] |  | 11.8 | 0.242 |  |  |  |  |  |  |  | 
4 | CCN1CCC(c2cc3c(F)cc(-c4cc(C)c5nc(C)cn5n4)cc3nn2)CC1 [HTT-D3] | induced the inclusion of an Intron 49 pseudoexon | 7.10 | 0.472 |  |  |  |  |  |  |  | dose dependent and more equitable lowering of HTT protein
